Like-named read-outs stand apart in the source and are kept apart here.
What was measured:
SK-MEL-2 = test: NCI antiproliferative SRB assay, Melanoma panel; type: cell-based, Human; settings: one dose 10 µM
SK-MEL-28 = test: NCI antiproliferative SRB assay, Melanoma panel; type: cell-based, Human
UACC-257 = test: NCI antiproliferative SRB assay, Melanoma panel; type: cell-based, Human
UACC-62 = test: NCI antiproliferative SRB assay, Melanoma panel; type: cell-based, Human
OVCAR-8 = test: NCI antiproliferative SRB assay, Ovarian Cancer panel; type: cell-based, Human
NCI/ADR-RES = test: as above; type: cell-based, Human
786–0 = test: NCI antiproliferative SRB assay, Renal Cancer panel; type: cell-based, Human
A498 = test: as above; type: cell-based, Human
CAKI-1 = test: as above; type: cell-based, Human
RXF 393 = test: as above; type: cell-based, Human
DU-145 = test: NCI antiproliferative SRB assay, Prostate Cancer panel; type: cell-based, Human
MDA-MB-231 = test: NCI antiproliferative SRB assay, Breast Cancer panel; type: cell-based
HS 578T = test: as above; type: cell-based, Human
BT-549 = test: as above; type: cell-based, Human
Leukemia cell line panel = test: NCI antiproliferative assay, panel summary; type: cell-based, Human; settings: for GI50: Homo sapiens
[1] = system: Breast Cancer cell line panel; test: NCI antiproliferative assay, panel summary; type: cell-based, Human
[2] = Homo sapiens, 5-dose 0.01-100 µM
[3] = Homo sapiens, 5-dose 0.01-100 µM, read-out: LC50 (the source's name)

COc1ccc(NC(=O)n2nc(/C=C/c3ccc(O)c(OC)c3)cc2/C=C/c2ccc(O)c(OC)c2)cc1 [3b]
%GI (SK-MEL-2): 78.62%
GP (growth percent) (SK-MEL-2): 21.38
TGI (SK-MEL-28; 5-dose 0.01-100 µM): 92.7 µM
GI50 (SK-MEL-28; [2]): 3.52 µM
CC50 (SK-MEL-28; [3]): > 100 µM
%GI (SK-MEL-28; one dose 10 µM): 65.47%
GP (growth percent) (SK-MEL-28; one dose 10 µM): 34.53
TGI (UACC-257; 5-dose 0.01-100 µM): 64.8 µM
GI50 (UACC-257; [2]): 16.7 µM
CC50 (UACC-257; [3]): > 100 µM
%GI (UACC-257; one dose 10 µM): 24.78%
GP (growth percent) (UACC-257; one dose 10 µM): 75.22
TGI (UACC-62; 5-dose 0.01-100 µM): 6.91 µM
GI50 (UACC-62; [2]): 2.14 µM
CC50 (UACC-62; [3]): > 100 µM
%GI (UACC-62; one dose 10 µM): 74.53%
GP (growth percent) (UACC-62; one dose 10 µM): 25.47
TGI (OVCAR-8; 5-dose 0.01-100 µM): 59.9 µM
GI50 (OVCAR-8; [2]): 5.32 µM
CC50 (OVCAR-8; [3]): > 100 µM
%GI (OVCAR-8; one dose 10 µM): 67.21%
GP (growth percent) (OVCAR-8; one dose 10 µM): 32.79
TGI (NCI/ADR-RES; 5-dose 0.01-100 µM): >100 µM
GI50 (NCI/ADR-RES; [2]): 4.28 µM
CC50 (NCI/ADR-RES; [3]): > 100 µM
%GI (NCI/ADR-RES; one dose 10 µM): 76.11%
GP (growth percent) (NCI/ADR-RES; one dose 10 µM): 23.89
TGI (786–0; 5-dose 0.01-100 µM): 24.3 µM
GI50 (786–0; [2]): 4 µM
CC50 (786–0; [3]): > 100 µM
%GI (786–0; one dose 10 µM): 67.92%
GP (growth percent) (786–0; one dose 10 µM): 32.08
TGI (A498; 5-dose 0.01-100 µM): 56.4 µM
GI50 (A498; [2]): 17.2 µM
CC50 (A498; [3]): > 100 µM
%GI (A498; one dose 10 µM): 17.53%
GP (growth percent) (A498; one dose 10 µM): 82.47
TGI (CAKI-1; 5-dose 0.01-100 µM): >100 µM
GI50 (CAKI-1; [2]): 3.6 µM
CC50 (CAKI-1; [3]): > 100 µM
%GI (CAKI-1; one dose 10 µM): 61.94%
GP (growth percent) (CAKI-1; one dose 10 µM): 38.06
TGI (RXF 393; 5-dose 0.01-100 µM): 8.87 µM
GI50 (RXF 393; [2]): 3.02 µM
CC50 (RXF 393; [3]): > 100 µM
%GI (RXF 393; one dose 10 µM): 76.99%
GP (growth percent) (RXF 393; one dose 10 µM): 23.01
TGI (DU-145; 5-dose 0.01-100 µM): 24.6 µM
GI50 (DU-145; [2]): 3.99 µM
CC50 (DU-145; [3]): > 100 µM
%GI (DU-145; one dose 10 µM): 72.77%
GP (growth percent) (DU-145; one dose 10 µM): 27.23
TGI (MDA-MB-231; 5-dose 0.01-100 µM): 83.5 µM
GI50 (MDA-MB-231; Homo sapiens): 4.94 µM
CC50 (MDA-MB-231; [3]): > 100 µM
%GI (MDA-MB-231; one dose 10 µM): 63.47%
GP (growth percent) (MDA-MB-231; one dose 10 µM): 36.53
TGI (HS 578T; 5-dose 0.01-100 µM): 61.9 µM
GI50 (HS 578T; [2]): 6.77 µM
CC50 (HS 578T; [3]): > 100 µM
%GI (HS 578T; one dose 10 µM): 71.29%
GP (growth percent) (HS 578T; one dose 10 µM): 28.71
TGI (BT-549; 5-dose 0.01-100 µM): 29.5 µM
GI50 (BT-549; [2]): 2.49 µM
CC50 (BT-549; [3]): > 100 µM
%GI (BT-549; one dose 10 µM): 68.63%
GP (growth percent) (BT-549; one dose 10 µM): 31.37
Mean % GI (Leukemia cell line panel; 10 µM): 88.02%
Selectivity Ratio (MID a:MID b) (Leukemia cell line panel; 5-dose assay): 1.89
GI50 (Leukemia cell line panel; 5-dose assay, read-out: GI50 values, range over the leukemia panel): 1.52 to 3.38 µM
GI50 (Leukemia cell line panel; 5-dose assay, read-out: Sub Panel MID b (mean GI50 of panel)): 2.59 µM
Mean % GI ([1]; 10 µM): 69.71%
Selectivity Ratio (MID a:MID b) ([1]; 5-dose assay): 1.19
GI50 ([1]; Homo sapiens, 5-dose assay, read-out: Sub Panel MID b (mean GI50 of panel)): 4.12 µM
